Assay results taken from PMC10124120 (European journal of medicinal chemistry, 2023).

Assays:
SLC26A3 = biological target: T1, SLC26A3 (Mus musculus, UniProt Q9WVC8); test: Kinetic studies of inhibitor action; format: cell-based, murine; details: from kinetics of inhibition onset and washout
T1 sequence (Q9WVC8 1-757): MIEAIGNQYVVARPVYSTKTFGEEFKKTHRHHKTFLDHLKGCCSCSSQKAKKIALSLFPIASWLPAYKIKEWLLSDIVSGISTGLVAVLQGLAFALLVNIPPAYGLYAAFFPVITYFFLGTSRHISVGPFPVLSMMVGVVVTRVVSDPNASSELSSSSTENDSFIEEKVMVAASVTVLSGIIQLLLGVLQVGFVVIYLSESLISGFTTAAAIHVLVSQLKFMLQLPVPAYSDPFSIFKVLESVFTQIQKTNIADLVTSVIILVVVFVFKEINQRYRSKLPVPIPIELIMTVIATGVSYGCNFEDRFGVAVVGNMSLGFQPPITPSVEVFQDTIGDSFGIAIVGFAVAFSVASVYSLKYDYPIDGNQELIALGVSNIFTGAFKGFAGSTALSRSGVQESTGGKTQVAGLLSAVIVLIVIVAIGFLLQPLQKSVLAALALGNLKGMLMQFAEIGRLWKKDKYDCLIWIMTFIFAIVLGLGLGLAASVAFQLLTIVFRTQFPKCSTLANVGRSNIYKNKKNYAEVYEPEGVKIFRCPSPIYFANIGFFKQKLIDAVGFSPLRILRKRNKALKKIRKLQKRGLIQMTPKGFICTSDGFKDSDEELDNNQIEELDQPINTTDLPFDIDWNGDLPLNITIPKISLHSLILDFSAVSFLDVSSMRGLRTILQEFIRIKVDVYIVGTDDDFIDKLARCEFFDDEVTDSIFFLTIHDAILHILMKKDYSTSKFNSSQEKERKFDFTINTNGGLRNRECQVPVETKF

SLC26A4 = biological target: T2, SLC26A4 (Homo sapiens, UniProt O43511); test: YFP-based selectivity assay, SLC26A4; format: cell-based; details: for inhibition at 10 µM: read-out: % Inhibition SLC26A4
T2 sequence (O43511 1-780): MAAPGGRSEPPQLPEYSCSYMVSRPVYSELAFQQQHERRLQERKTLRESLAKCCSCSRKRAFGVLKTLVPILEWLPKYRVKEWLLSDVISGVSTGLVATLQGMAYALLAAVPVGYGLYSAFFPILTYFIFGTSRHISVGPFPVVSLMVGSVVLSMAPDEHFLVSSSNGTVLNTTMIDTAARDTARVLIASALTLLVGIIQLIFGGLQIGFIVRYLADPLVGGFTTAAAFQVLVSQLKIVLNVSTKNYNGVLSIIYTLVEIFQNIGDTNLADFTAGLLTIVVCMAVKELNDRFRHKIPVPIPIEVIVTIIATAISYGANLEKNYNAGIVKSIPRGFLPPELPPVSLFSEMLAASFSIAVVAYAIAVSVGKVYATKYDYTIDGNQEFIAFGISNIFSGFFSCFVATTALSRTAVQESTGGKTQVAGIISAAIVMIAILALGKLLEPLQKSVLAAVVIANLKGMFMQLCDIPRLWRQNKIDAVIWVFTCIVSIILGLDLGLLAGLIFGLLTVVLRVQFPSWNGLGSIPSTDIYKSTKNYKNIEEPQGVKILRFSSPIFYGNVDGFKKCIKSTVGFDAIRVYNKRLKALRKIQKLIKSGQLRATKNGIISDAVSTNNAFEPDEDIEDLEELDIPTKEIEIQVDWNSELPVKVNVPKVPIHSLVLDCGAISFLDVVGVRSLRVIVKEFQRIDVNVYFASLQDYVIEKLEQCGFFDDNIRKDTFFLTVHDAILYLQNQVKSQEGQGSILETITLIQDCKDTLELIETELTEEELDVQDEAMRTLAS

[1] = system: loperamide-induced constipation; test: Loperamide-induced model of constipation in mice; format: in vivo, CD1 mice
[2] = system: loperamide-induced constipation; details: mouse model of constipation produced by loperamide; cited from earlier work
[3] = system: hyperoxaluria and oxalate nephropathy; details: mice orally loaded with oxalate; cited from earlier work
[4] = system: absorption of fluid and oxalate from the loop lumen; details: closed colonic loops in mice; cited from earlier work
TMEM16A = test: YFP-based selectivity assay, TMEM16A; format: cell-based; details: 10 μM, mean ± S.E.M., n = 6–8
[5] = loperamide 0.3 mg/kg intraperitoneal
[6] = loperamide-treated mice (0.3 mg/kg ip), 10 mg/kg oral gavage, vs vehicle

In the case of `Cc1ccccc1COc1ccc2oc(-c3ccccc3)c(C(=O)O)c2c1` [Compound 4a], the site of action (SLC26A3) is reported as “Extracellular” and the inhibition at 10 µM (SLC26A4) is reported as -13 ± 21%.
In the case of `CN(C)C(=O)C(CCN1CCC(O)(c2ccc(Cl)cc2)CC1)(c1ccccc1)c1ccccc1` [Loperamide, loperamide, reference compound], the “reduced pellet number compared to control mice” value [1, 5] is reported as greater than 90% and the “reduced stool weight compared to control mice” value [1, 5] is reported as greater than 90%.
`O=C(Nc1ccccc1C(=O)O)c1ccc2c(c1)C(=O)N(c1ccc(Cl)cc1)C2=O` [Compound 1a] showed an inhibition at 10 µM (SLC26A4) of -14 ± 19%.
With `O=c1cc(COc2ccccc2Cl)nc2scc(-c3ccccc3)n12` [Compound 3a, 7-(2-chloro-phenoxymethyl)-3-phenyl-thiazolo [3,2-a]pyrimidin-5-one] the site of action (SLC26A3) was “Extracellular”, the inhibition at 10 µM (SLC26A4) was -13 ± 23% and the number of pellets [1, 6] was “significantly increased”. The stool weight [1, 6] was “significantly increased”.
In the case of `Cc1c(CC(=O)O)c(=O)oc2c(C)c(OCc3cccc(I)c3)ccc12` [DRAinh-A270, [7-(3-iodobenzyloxy)-4,8-dimethylcoumarin]-3-acetic acid], the site of action (SLC26A3) is listed as “intracellular”, the “improving stool output and hydration” value [2] is listed as “effective” and the “preventing hyperoxaluria and oxalate nephropathy” value [3] is listed as “effective”. The “absorption of fluid and oxalate from the loop lumen” value [4] was “inhibited”.
For `Cc1cc(C)cc(N(C)S(=O)(=O)c2nnc(NC(=O)COc3ccc(C)c(C)c3)s2)c1` [Compound 2a], the “% Inhibition TMEM16A” value (TMEM16A) was greater than 80%.
In the case of `COC(=O)c1c(C)oc2ccc(OC(=O)COCc3ccccc3)cc12` [Compound 4h], the “activity against SLC26A4 (in words)” value (SLC26A4) is reported as “active”.
